# Measurements reported in patent EP4806446A2.
# Read-outs that look alike come from different tables or passages of the source.
# Settings: ester bond, DCM
compound,measurement,setting,value
CCn1c(-c2cc(N3CCN(C)CC3)cnc2[C@H](C)OC)c2c3cc(ccc31)-c1csc(n1)C[C@H](NC(=O)OC(C)(C)C)C(=O)N(C)NCC(=O)OCC(C)(C)C2,"ring closure, yield of all isomers","from CCn1c(-c2cc(N3CCN(C)CC3)cnc2[C@H](C)OC)c(CC(C)(C)CO)c2cc(-c3csc(C[C@H](NC(=O)OC(C)(C)C)C(=O)N(C)NCC(=O)O)n3)ccc21, PyBOP/DMAP, 0.81 mM, 0.0 °C, 1.0 h",42%
CCn1c(-c2cc(N3CCN(C(=O)OCc4ccccc4)CC3)cnc2[C@H](C)OC)c2c3cc(ccc31)N1CCO[C@@H](C[C@H](NC(=O)OC(C)(C)C)C(=O)N3N[C@H](C(=O)OCC(C)(C)C2)C2CC3C2)C1,"ring closure, yield of all isomers","from CCn1c(-c2cc(N3CCN(C(=O)OCc4ccccc4)CC3)cnc2[C@H](C)OC)c(CC(C)(C)CO)c2cc(N3CCO[C@@H](C[C@H](NC(=O)OC(C)(C)C)C(=O)N4N[C@H](C(=O)O)C5CC4C5)C3)ccc21, PyBOP/DMAP, 9.8 mM, 35.0 °C, 0.5 h",16%
CCn1c(-c2cc(N3CCN(C(=O)OCc4ccccc4)CC3)cnc2[C@H](C)OC)c2c3cc(ccc31)-c1csc(n1)C[C@H](NC(=O)OC(C)(C)C)C(=O)N(C)NCC(=O)OCC(C)(C)C2,"ring closure, yield of all isomers","from CCn1c(-c2cc(N3CCN(C(=O)OCc4ccccc4)CC3)cnc2[C@H](C)OC)c(CC(C)(C)CO)c2cc(-c3csc(C[C@H](NC(=O)OC(C)(C)C)C(=O)N(C)NCC(=O)O)n3)ccc21, EDCI/HOBt/DIEA, 4.25 mM, 25.0 °C, 16.0 h",38.2%
CCn1c(-c2cc(N3CCN(C4CC4)CC3)cnc2[C@H](C)OC)c2c3cc(ccc31)-c1csc(n1)C[C@H](NC(=O)OC(C)(C)C)C(=O)N(C)NCC(=O)OCC(C)(C)C2,"ring closure, yield of all isomers","from CCn1c(-c2cc(N3CCN(C4CC4)CC3)cnc2[C@H](C)OC)c(CC(C)(C)CO)c2cc(-c3csc(C[C@H](NC(=O)OC(C)(C)C)C(=O)N(C)NCC(=O)O)n3)ccc21, PyBOP/DMAP, 5.9 mM, 0.0 °C, 1.0 h",27%
CCn1c(-c2cc(N3CCN(C4CC4)CC3)cnc2[C@H](C)OC)c2c3cc(ccc31)-c1nnc(o1)C[C@H](NC(=O)OCc1ccccc1)C(=O)N1N[C@H](C(=O)OCC(C)(C)C2)C2CC1C2,"ring closure, yield of all isomers","from CCn1c(-c2cc(N3CCN(C4CC4)CC3)cnc2[C@H](C)OC)c(CC(C)(C)CO)c2cc(-c3nnc(C[C@H](NC(=O)OCc4ccccc4)C(=O)N4N[C@H](C(=O)O)C5CC4C5)o3)ccc21, PyBOP, DMAP, 6.64 mM, 25.0 °C, 16.0 h, 2 steps",29%
CCn1c(-c2cc(N3CCN(C)CC3)cnc2[C@H](C)OC)c2c3cc(ccc31)-c1csc(n1)C[C@H](NC(=O)OC(C)(C)C)C(=O)N1N[C@H](C(=O)OCC(C)(C)C2)C2CC1C2,"ring closure, yield of all isomers","from CCn1c(-c2cc(N3CCN(C)CC3)cnc2[C@H](C)OC)c(CC(C)(C)CO)c2cc(-c3csc(C[C@H](NC(=O)OC(C)(C)C)C(=O)N4N[C@H](C(=O)O)C5CC4C5)n3)ccc21, PyBOP/DMAP, 5.8 mM, 25.0 °C, 5.0 h",48.8%
CCn1c(-c2cccnc2[C@H](C)OC)c2c3cc(ccc31)N1CCO[C@@H](C[C@H](NC(=O)OC(C)(C)C)C(=O)N3N[C@H](C(=O)OCC(C)(C)C2)C2CC3C2)C1,"ring closure, yield of all isomers","from CCn1c(-c2cccnc2[C@H](C)OC)c(CC(C)(C)CO)c2cc(N3CCO[C@@H](C[C@H](NC(=O)OC(C)(C)C)C(=O)N4N[C@H](C(=O)O)C5CC4C5)C3)ccc21, PyBOP, DMAP, 2.6 mM, 25.0 °C, 16.0 h",96.2%
C=C[C@@H]1CCN2N[C@@H]1C(=O)OCC(C)(C)Cc1c(-c3cc(N4CCN(C(=O)OCc5ccccc5)CC4)cnc3[C@H](C)OC)n(CC)c3ccc(cc13)-c1csc(n1)C[C@H](NC(=O)OC(C)(C)C)C2=O,"ring closure, yield of all isomers","from C=C[C@@H]1CCN(C(=O)[C@H](Cc2nc(-c3ccc4c(c3)c(CC(C)(C)CO)c(-c3cc(N5CCN(C(=O)OCc6ccccc6)CC5)cnc3[C@H](C)OC)n4CC)cs2)NC(=O)OC(C)(C)C)N[C@@H]1C(=O)O, EDCI/HOBt/DIEA, 10.0 mM, 25.0 °C, 16.0 h",36.7%
CCn1c(-c2cc(N3CCN(C(=O)OCc4ccccc4)CC3)cnc2[C@H](C)OC)c2c3cc(ccc31)-c1cccc(c1)C[C@H](NC(=O)OC(C)(C)C)C(=O)N1N[C@H](C(=O)OCC(C)(C)C2)C2CC1C2,"ring closure, yield of all isomers","from CCn1c(-c2cc(N3CCN(C(=O)OCc4ccccc4)CC3)cnc2[C@H](C)OC)c(CC(C)(C)CO)c2cc(-c3cccc(C[C@H](NC(=O)OC(C)(C)C)C(=O)N4N[C@H](C(=O)O)C5CC4C5)c3)ccc21, EDCI/HOBt/DIEA, 6.0 mM, 25.0 °C, 16.0 h",27%
CCn1c(-c2cc(N3CCN(C(=O)OCc4ccccc4)CC3)cnc2[C@H](C)OC)c2c3cc(ccc31)-c1csc(n1)C[C@H](NC(=O)OC(C)(C)C)C(=O)N1N[C@@H](C(=O)OCC(C)(C)C2)C2CC1C2,"ring closure, yield of all isomers","from CCn1c(-c2cc(N3CCN(C(=O)OCc4ccccc4)CC3)cnc2[C@H](C)OC)c(CC(C)(C)CO)c2cc(-c3csc(C[C@H](NC(=O)OC(C)(C)C)C(=O)N4N[C@@H](C(=O)O)C5CC4C5)n3)ccc21, EDCI/HOBt/DIEA, 5.2 mM, 35.0 °C",49%
CCn1c(-c2cccnc2[C@H](C)OC)c2c3cc(ccc31)N1CCO[C@@H](C[C@H](NC(=O)OC(C)(C)C)C(=O)N(C)NCC(=O)OCC(C)(C)C2)C1,"ring closure, yield of all isomers","from CCn1c(-c2cccnc2[C@H](C)OC)c(CC(C)(C)CO)c2cc(N3CCO[C@@H](C[C@H](NC(=O)OC(C)(C)C)C(=O)N(C)NCC(=O)O)C3)ccc21, EDCI/HOBt, DIEA, 6.5 mM, 25.0 °C, 16.0 h",44%
